Data from PubChem BioAssay (NCI).
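Method: 48-hour compound exposure of cells in 96-well plates, five concentrations, linear interpolation of endpoints. GI50 marks 50% less growth. The concentration for full growth arrest is given as TGI.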

Legend:
Test in all cases: growth of human tumour cells (NCI), 48 h
SK-MEL-5 melanoma = system: SK-MEL-5 melanoma
NCI/ADR-RES ovarian = system: NCI/ADR-RES ovarian
U251 CNS = system: U251 CNS
SNB-75 CNS = system: SNB-75 CNS
NCI-H460 lung = system: NCI-H460 lung
SK-MEL-28 melanoma = system: SK-MEL-28 melanoma
NCI-H522 lung = system: NCI-H522 lung
A498 renal = system: A498 renal

Cc1ccccc1C(=O)C#Cc1cn(C2CC(O)C(CO)O2)c(=O)[nH]c1=O (stereo not drawn)
TGI (SK-MEL-5 melanoma): > 100 µM
TGI (NCI/ADR-RES ovarian): > 100 µM
TGI (U251 CNS): > 100 µM
TGI (SNB-75 CNS): > 100 µM
TGI (NCI-H460 lung): > 100 µM
TGI (SK-MEL-28 melanoma): > 100 µM
TGI (NCI-H522 lung): 28.7 µM

N#CC1=C(N)OC2=C(COc3ccc(F)cc32)C1c1ccc(Cl)cc1 (stereo not drawn)
GI50 (SK-MEL-5 melanoma): 20.4 µM
TGI (SK-MEL-5 melanoma): 58.7 µM
GI50 (NCI/ADR-RES ovarian): 19.1 µM
TGI (NCI/ADR-RES ovarian): 48.8 µM
GI50 (U251 CNS): 32.6 µM
TGI (U251 CNS): > 100 µM
GI50 (A498 renal): 22.2 µM
TGI (A498 renal): 67.7 µM
GI50 (SNB-75 CNS): > 100 µM
TGI (SNB-75 CNS): > 100 µM
GI50 (NCI-H460 lung): 27.8 µM
TGI (NCI-H460 lung): > 100 µM
GI50 (NCI-H522 lung): 38.2 µM
TGI (NCI-H522 lung): 93.6 µM

COc1ccc(CNc2nc3cc(N)cc(N)c3nc2-c2ccccc2)cc1OC
GI50 (SK-MEL-5 melanoma): 9.27 µM
TGI (SK-MEL-5 melanoma): 25.3 µM
GI50 (NCI/ADR-RES ovarian): 17.7 µM
TGI (NCI/ADR-RES ovarian): 58.2 µM
GI50 (U251 CNS): 17.3 µM
TGI (U251 CNS): 38.1 µM
GI50 (SNB-75 CNS): 14.1 µM
TGI (SNB-75 CNS): 37.4 µM
GI50 (NCI-H460 lung): 27.1 µM
TGI (NCI-H460 lung): > 95.3 µM
GI50 (SK-MEL-28 melanoma): 15 µM
TGI (SK-MEL-28 melanoma): 33.8 µM
GI50 (NCI-H522 lung): 8.16 µM
TGI (NCI-H522 lung): 24.6 µM

N#CC1=C(N)NC(=S)NC12Nc1ccccc1O2 (stereo not drawn)
GI50 (SK-MEL-5 melanoma): 27.1 µM
TGI (SK-MEL-5 melanoma): 85.4 µM
GI50 (NCI/ADR-RES ovarian): 20.5 µM
TGI (NCI/ADR-RES ovarian): 69.6 µM
GI50 (U251 CNS): 28.2 µM
TGI (U251 CNS): > 100 µM
GI50 (SNB-75 CNS): 59.5 µM
TGI (SNB-75 CNS): > 100 µM
GI50 (NCI-H460 lung): 65.5 µM
TGI (NCI-H460 lung): > 100 µM
GI50 (SK-MEL-28 melanoma): 45.7 µM
TGI (SK-MEL-28 melanoma): > 100 µM
GI50 (NCI-H522 lung): 11.5 µM
TGI (NCI-H522 lung): 43.1 µM

COc1ccccc1C1=C2C(=O)N(C)C(c3ccccc3OC)=C2C(=O)N1C
TGI (SK-MEL-5 melanoma): > 100 µM
TGI (NCI/ADR-RES ovarian): > 100 µM
TGI (U251 CNS): > 100 µM
TGI (A498 renal): > 100 µM
TGI (NCI-H460 lung): > 100 µM
TGI (SK-MEL-28 melanoma): > 100 µM
TGI (NCI-H522 lung): > 100 µM

COC(=O)COc1ccc(/C=C2\N=C(c3ccccc3)N(c3cc(C(F)(F)F)ccc3Cl)C2=O)cc1
GI50 (SK-MEL-5 melanoma): 46.1 µM
TGI (SK-MEL-5 melanoma): > 100 µM
GI50 (NCI/ADR-RES ovarian): 52.6 µM
TGI (NCI/ADR-RES ovarian): > 100 µM
GI50 (U251 CNS): 46.4 µM
TGI (U251 CNS): > 100 µM
GI50 (SNB-75 CNS): 76.6 µM
TGI (SNB-75 CNS): > 100 µM
GI50 (NCI-H460 lung): > 100 µM
TGI (NCI-H460 lung): > 100 µM
GI50 (SK-MEL-28 melanoma): > 100 µM
TGI (SK-MEL-28 melanoma): > 100 µM
GI50 (NCI-H522 lung): 24.1 µM
TGI (NCI-H522 lung): 68.8 µM

C[C@@H]1O[C@@H](O[C@@H]2[C@@H](O)[C@H](OCCc3ccc(O)c(O)c3)O[C@H](COC(=O)/C=C/c3ccc(O)c(O)c3)[C@H]2O)[C@H](O)[C@H](O)[C@H]1O
GI50 (SK-MEL-5 melanoma): > 100 µM
TGI (SK-MEL-5 melanoma): > 100 µM
GI50 (U251 CNS): 49.2 µM
TGI (U251 CNS): > 100 µM
GI50 (SNB-75 CNS): > 100 µM
TGI (SNB-75 CNS): > 100 µM
GI50 (NCI-H460 lung): > 100 µM
TGI (NCI-H460 lung): > 100 µM
GI50 (SK-MEL-28 melanoma): > 100 µM
TGI (SK-MEL-28 melanoma): > 100 µM
GI50 (NCI-H522 lung): > 100 µM
TGI (NCI-H522 lung): > 100 µM

COc1ccc(/C=C2\CN(C(=O)C(Cl)Cl)C/C(=C\c3ccc(OC)c(OC)c3)C2=O)cc1OC
GI50 (SK-MEL-5 melanoma): 0.199 µM
TGI (SK-MEL-5 melanoma): 0.54 µM
GI50 (NCI/ADR-RES ovarian): 0.0864 µM
TGI (NCI/ADR-RES ovarian): > 67.5 µM
GI50 (U251 CNS): 0.0405 µM
TGI (U251 CNS): 1.12 µM
GI50 (SNB-75 CNS): 0.651 µM
TGI (SNB-75 CNS): > 100 µM
GI50 (NCI-H460 lung): 0.371 µM
TGI (NCI-H460 lung): 1.72 µM
GI50 (NCI-H522 lung): 0.231 µM
TGI (NCI-H522 lung): 0.697 µM

CCOC(=O)Cc1csc(/N=C2\NC(=O)/C(=C3\C(=O)N(C)c4ccccc43)S2)n1
GI50 (SK-MEL-5 melanoma): 38 µM
TGI (SK-MEL-5 melanoma): > 100 µM
GI50 (NCI/ADR-RES ovarian): 49.6 µM
TGI (NCI/ADR-RES ovarian): > 100 µM
GI50 (U251 CNS): 33.6 µM
TGI (U251 CNS): > 100 µM
GI50 (A498 renal): 46.8 µM
TGI (A498 renal): > 100 µM
GI50 (NCI-H460 lung): 20.7 µM
TGI (NCI-H460 lung): 55.9 µM
GI50 (SK-MEL-28 melanoma): 80.3 µM
TGI (SK-MEL-28 melanoma): > 100 µM
GI50 (NCI-H522 lung): 24.8 µM
TGI (NCI-H522 lung): 93.3 µM
